From patent publication US10300051B2, “Cyclopropylamines as LSD1 inhibitors” (priority 2014, dated 2019)

These molecules were tested against LSD-1 enzyme (Homo sapiens (Human), UniProt O60341). Conditions: not given.
Format: biochemical
Procedure: Example A: LSD1 Histone Demethylase Biochemical Assay
LANCE LSD1/KDM1A demethylase assay—10 μL of 1 nM LSD-1 enzyme (ENZO BML-SE544-0050) in the assay buffer (50 mM Tris, pH 7.5, 0.01% Tween-20, 25 mM NaCl, 5 mM DTT) were preincubated for 1 hour at 25° C. with 0.8 μL compound/DMSO dotted in black 384 well polystyrene plates. […] Reactions were stopped by addition of 10 μL 1× LANCE Detection Buffer (PerkinElmer CR97-100) supplemented with 1.5 nM Eu-anti-unmodified H3K4 Antibody (PerkinElmer TRF0404), and 225 nM LANCE Ultra Streptavidin (PerkinElmer TRF102) along with 0.9 mM Tranylcypromine-HCl (Millipore 616431). After stopping the reactions plates were incubated for 30 minutes and read on a PHERAstar FS plate reader (BMG Labtech).

Row | Structure (SMILES) | IC50 [nM]
1 | CN(C)CC(=O)N1CCC(CN[C@@H]2C[C@H]2c2ccccc2)(Cc2cccc(C#N)c2)CC1 [Example 57, 3-{[1-[(dimethylamino)acetyl]-4-({[(1R,2S)-2-phenylcyclopropyl]amino}methyl)piperidin-4-yl]methyl}benzonitrile] | < 100

Same assay, conditions: 1 nM LSD-1 enzyme, 1 hour preincubation at 25° C., Biotin-labeled Histone H3 peptide substrate

Row | Structure (SMILES) | IC50 [nM]
2 | COCC1(CN[C@@H]2C[C@H]2c2ccccc2)CCN(C(=O)N2CCOCC2)CC1 [Example 49, (1R,2S)—N-{[4-(methoxymethyl)-1-(morpholin-4-ylcarbonyl)piperidin-4-yl]methyl}-2-phenylcyclopropanamine] | < 100
3 | N#Cc1ccccc1OCC1(CN[C@@H]2C[C@H]2c2ccccc2)CCN(CCC(=O)O)CC1 [Example 43, 3-[4-[(2-cyanophenoxy)methyl]-4-({[(1R,2S)-2-phenylcyclopropyl]amino}methyl)piperidin-1-yl]propanoic Acid] | < 100
4 | O=C(O)CCN1CCC(CN[C@@H]2C[C@H]2c2ccccc2)(Cc2cccc(O[C@@H]3CCOC3)c2)CC1 [Example 35, 3-(4-({[(1R,2S)-2-phenylcyclopropyl]amino}methyl)-4-{3-[(3R)-tetrahydrofuran-3-yloxy]benzyl}piperidin-1-yl)propanoic Acid] | < 100
5 | O=C(O)CCN1CCC(CN[C@@H]2C[C@H]2c2ccccc2)(COc2ncc(F)cn2)CC1 [Example 46, 3-[4-{[(5-fluoropyrimidin-2-yl)oxy]methyl}-4-({[(1R,2S)-2-phenylcyclopropyl]amino}methyl)piperidin-1-yl]propanoic Acid] | < 100
6 | O=C(O)CCN1CCC(CN[C@@H]2C[C@H]2c2ccccc2)(Cc2cccc(F)c2F)CC1 [Example 19, 3-[4-(2,3-difluorobenzyl)-4-({[(1R,2S)-2-phenylcyclopropyl]amino}methyl)piperidin-1-yl]propanoic Acid] | < 100
7 | N#CCc1ccc(CC2(CN[C@@H]3C[C@H]3c3ccccc3)CCN(CCC(=O)O)CC2)cc1 [Example 25, 3-[4-[4-(cyanomethyl)benzyl]-4-({[(1R,2S)-2-phenylcyclopropyl]amino}methyl)piperidin-1-yl]propanoic Acid] | < 100
8 | N#CCC1(CN[C@@H]2C[C@H]2c2ccccc2)CCN(Cc2cccnc2)CC1 (relative stereo) [Example 7, [4-{[(trans-2-Phenylcyclopropyl)amino]methyl}-1-(pyridin-3-ylmethyl)piperidin-4-yl]acetonitrile] | < 100
9 | O=C(O)CCN1CCC(CN[C@@H]2C[C@H]2c2ccccc2)(COCC2CCC2)CC1 [Example 52, 3-[4-[(cyclobutylmethoxy)methyl]-4-({[(1R,2S)-2-phenylcyclopropyl]amino}methyl)piperidin-1-yl]propanoic Acid] | < 100
10 | CN(C)CC(=O)N1CCC(CN[C@@H]2C[C@H]2c2ccccc2)(Cc2cccc(C(N)=O)c2)CC1 [Example 58, 3-{[1-[(dimethylamino)acetyl]-4-({[(1R,2S)-2-phenylcyclopropyl]amino}methyl)piperidin-4-yl]methyl}benzamide] | < 100
11 | N#Cc1ccc(OCC2(CN[C@@H]3C[C@H]3c3ccccc3)CCN(CCC(=O)O)CC2)cc1 [Example 44, 3-[4-[(4-cyanophenoxy)methyl]-4-({[(1R,2S)-2-phenylcyclopropyl]amino}methyl)piperidin-1-yl]propanoic Acid] | < 100
12 | COc1cccc(CC2(CN[C@@H]3C[C@H]3c3ccccc3)CCN(CCC(=O)O)CC2)c1 [Example 59, 3-[4-(3-methoxybenzyl)-4-({[(1R,2S)-2-phenylcyclopropyl]amino}methyl)piperidin-1-yl]propanoic Acid] | < 100
13 | Fc1ccc(CC2(CN[C@@H]3C[C@H]3c3ccccc3)CCNCC2)cc1 [Example 11, (1R,2S)—N-{[4-(4-fluorobenzyl)piperidin-4-yl]methyl}-2-phenylcyclopropanamine] | < 100
14 | N#CCC1(CN[C@@H]2C[C@H]2c2ccccc2)CCNCC1 (relative stereo) [Example 6, (4-{[(trans-2-Phenylcyclopropyl)amino]methyl}piperidin-4-yl)acetonitrile] | < 100
15 | CCOc1cccc(CC2(CN[C@@H]3C[C@H]3c3ccccc3)CCN(CCC(=O)O)CC2)c1 [Example 60, 3-[4-(3-ethoxybenzyl)-4-({[(1R,2S)-2-phenylcyclopropyl]amino}methyl)piperidin-1-yl]propanoic Acid] | < 100
16 | COCC1(CN[C@@H]2C[C@H]2c2ccccc2)CCN(CCC(=O)N(C)C)CC1 [Example 23, 3-[4-(methoxymethyl)-4-({[(1R,2S)-2-phenylcyclopropyl]amino}methyl)piperidin-1-yl]-N,N-dimethylpropanamide] | < 100
17 | CCN1CCC(CN[C@@H]2C[C@H]2c2ccccc2)(Cc2cccc(C(=O)O)c2)CC1 [Example 29, 3-{[1-ethyl-4-({[(1R,2S)-2-phenylcyclopropyl]amino}methyl)piperidin-4-yl]methyl}benzoic Acid] | < 100

Row | Structure (SMILES) | IC50 [nM]
18 | O=C(O)CCN1CCC(CN[C@@H]2C[C@H]2c2ccccc2)(Cc2ccc(F)cc2F)CC1 [Example 18, 3-[4-(2,4-difluorobenzyl)-4-({[(1R,2S)-2-phenylcyclopropyl]amino}methyl)piperidin-1-yl]propanoic Acid] | < 100
19 | N#CCCN1CCC(CN[C@@H]2C[C@H]2c2ccccc2)(Cc2cccc(C(=O)O)c2)CC1 [Example 56, 3-{[1-(2-cyanoethyl)-4-({[(1R,2S)-2-phenylcyclopropyl]amino}methyl)piperidin-4-yl]methyl}benzoic Acid] | < 100
20 | N#Cc1ccc(CC2(CN[C@@H]3C[C@H]3c3ccccc3)CCN(CCC(=O)O)CC2)cc1 [Example 41, 3-[4-(4-cyanobenzyl)-4-({[(1R,2S)-2-phenylcyclopropyl]amino}methyl)piperidin-1-yl]propanoic Acid] | < 100
21 | CCOCC1(CN[C@@H]2C[C@H]2c2ccccc2)CCN(CCC(=O)O)CC1 [Example 51, 3-[4-(ethoxymethyl)-4-({[(1R,2S)-2-phenylcyclopropyl]amino}methyl)piperidin-1-yl]propanoic Acid] | < 100
22 | CN1CCC(CN[C@@H]2C[C@H]2c2ccccc2)(Cc2cccc(C(=O)O)c2)CC1 [Example 28, 3-{[1-methyl-4-({[(1R,2S)-2-phenylcyclopropyl]amino}methyl)piperidin-4-yl]methyl}benzoic Acid] | < 100
23 | CC(C)N1CCC(CN[C@@H]2C[C@H]2c2ccccc2)(Cc2cccc(C(=O)O)c2)CC1 [Example 34, 3-{[1-isopropyl-4-({[(1R,2S)-2-phenylcyclopropyl]amino}methyl)piperidin-4-yl]methyl}benzoic Acid] | < 100
24 | O=C(O)CCN1CCC(CN[C@@H]2C[C@H]2c2ccccc2)(Cc2cccc(OC3CCOCC3)c2)CC1 [Example 36, 3-{4-({[(1R,2S)-2-phenylcyclopropyl]amino}methyl)-4-[3-(tetrahydro-2H-pyran-4-yloxy)benzyl]piperidin-1-yl}propanoic Acid] | < 100
25 | CN(C)C(=O)N1CCC(CC#N)(CN[C@@H]2C[C@H]2c2ccccc2)CC1 (relative stereo) [Example 3, 4-(Cyanomethyl)-N,N-dimethyl-4-{[(trans-2-phenylcyclopropyl)amino]methyl}piperidine-1-carboxamide] | < 100
26 | O=C(O)c1cccc(CC2(CN[C@@H]3C[C@H]3c3ccccc3)CCN(Cc3ccccn3)CC2)c1 [Example 32, 3-{[4-({[(1R,2S)-2-phenylcyclopropyl]amino}methyl)-1-(pyridin-2-ylmethyl)piperidin-4-yl]methyl}benzoic Acid] | < 100
27 | CN(C)C(=O)CCN1CCC(CN[C@@H]2C[C@H]2c2ccccc2)(Cc2ccc(F)cc2)CC1 [Example 10, 3-[4-(4-fluorobenzyl)-4-({[(1R,2S)-2-phenylcyclopropyl]amino}methyl)piperidin-1-yl]-N,N-dimethylpropanamide] | < 100
28 | O=C(O)c1cccc(CC2(CN[C@@H]3C[C@H]3c3ccccc3)CCN(CC3CC3)CC2)c1 [Example 30, 3-{[1-(cyclopropylmethyl)-4-({[(1R,2S)-2-phenylcyclopropyl]amino}methyl)piperidin-4-yl]methyl}benzoic Acid] | < 100
29 | O=C(O)c1cccc(CC2(CN[C@@H]3C[C@H]3c3ccccc3)CCN(C3CCOCC3)CC2)c1 [Example 31, 3-{[4-({[(1R,2S)-2-phenylcyclopropyl]amino}methyl)-1-(tetrahydro-2H-pyran-4-yl)piperidin-4-yl]methyl}benzoic Acid] | < 100
30 | COc1ccc(CC2(CN[C@@H]3C[C@H]3c3ccccc3)CCN(CCC(=O)O)CC2)cc1 [Example 55, 3-[4-(4-methoxybenzyl)-4-({[(1R,2S)-2-phenylcyclopropyl]amino}methyl)piperidin-1-yl]propanoic Acid] | < 100
31 | CNC(=O)CCN1CCC(CN[C@@H]2C[C@H]2c2ccccc2)(COC)CC1 [Example 24, 3-[4-(methoxymethyl)-4-({[(1R,2S)-2-phenylcyclopropyl]amino}methyl)piperidin-1-yl]-N-methylpropanamide] | < 100
32 | O=C(O)CCN1CCC(CN[C@@H]2C[C@H]2c2ccccc2)(COc2cccc(F)c2)CC1 [Example 38, 3-[4-[(3-fluorophenoxy)methyl]-4-({[(1R,2S)-2-phenylcyclopropyl]amino}methyl)piperidin-1-yl]propanoic Acid] | < 100
33 | O=C(O)CCN1CCC(CN[C@@H]2C[C@H]2c2ccccc2)(COC2CCCCC2)CC1 [Example 53, 3-[4-[(cyclohexyloxy)methyl]-4-({[(1R,2S)-2-phenylcyclopropyl]amino}methyl)piperidin-1-yl]propanoic Acid] | < 100
